Test results: DBAASP
In brackets after ≈: the same amount, converted by molar mass. Several values for one entry are separate records, joined by “and”; a condition that tells them apart may be missing. Equal values may be shown once. One block for each compound: values may come before it.

Key:
Test in all cases: ≥ marks a high value that may be exact or a test limit, other limits are often not marked, values filed in µg/mL are converted to µM
[1] = tested on: Candida albicans ATCC 10231
[2] = tested on: Escherichia coli ATCC 25922
[3] = tested on: Pseudomonas aeruginosa ATCC 9027
[4] = tested on: Staphylococcus aureus ATCC 6538
[5] = tested on: Staphylococcus aureus ATCC 29213
[6] = tested on: Enterococcus faecalis ATCC 29212
[7] = tested on: Acinetobacter baumannii ATCC 19606
[8] = tested on: Staphylococcus aureus ATCC 25923
[9] = tested on: Pseudomonas aeruginosa ATCC 27853
[10] = tested on: Candida albicans ATCC 90028
[11] = tested on: Escherichia coli
[12] = tested on: Pseudomonas aeruginosa
[13] = tested on: Staphylococcus aureus
[14] = tested on: Klebsiella pneumoniae ATCC 700603
[15] = tested on: Acinetobacter baumannii
[16] = tested on: Bacillus subtilis
[17] = tested on: Candida albicans ATCC 2002
[18] = tested on: Bacillus subtilis ATCC 6633
[19] = tested on: Staphylococcus epidermidis

SMILES: CC(C)C[C@H](NC(=O)[C@H](C)NC(=O)[C@H](C)NC(=O)[C@H](CCCCN)NC(=O)[C@H](C)NC(=O)[C@H](CC(C)C)NC(=O)[C@H](CCCCN)NC(=O)[C@H](CCCCN)NC(=O)[C@H](C)NC(=O)[C@H](CC(C)C)NC(=O)[C@H](CCCCN)NC(=O)[C@H](CCCCN)NC(=O)[C@H](C)NC(=O)[C@@H](N)Cc1ccccc1)C(N)=O [FAKKLAKKLAKAAL]
MIC [3]: 66.6 µM (≈ 99.9 µg/mL) | MIC [4]: 6.66 µM (≈ 9.99 µg/mL)

SMILES: CC(C)C[C@H](NC(=O)[C@H](CCCCN)NC(=O)CNC(=O)[C@H](CC(C)C)NC(=O)[C@H](CC(C)C)NC(=O)[C@H](C)NC(=O)[C@H](CC(N)=O)NC(=O)[C@H](CC(C)C)NC(=O)[C@H](C)NC(=O)[C@H](CCC(N)=O)NC(=O)CNC(=O)[C@@H](NC(=O)[C@H](Cc1ccccc1)NC(=O)CNC(=O)[C@H](CC(C)C)NC(=O)[C@@H](N)Cc1ccccc1)C(C)C)C(N)=O [FLGFVGQALNALLGKL]
MIC [2]: > 64 µM | MIC [5]: 32 µM (≈ 53.1 µg/mL) | MIC [6]: > 64 µM | MIC [7]: > 64 µM

SMILES: CC(C)C[C@H](NC(=O)[C@H](CC(C)C)NC(=O)[C@H](CCCCN)NC(=O)[C@H](CCCCN)NC(=O)[C@H](CC(C)C)NC(=O)[C@H](CCC(N)=O)NC(=O)[C@H](CCCCN)NC(=O)[C@H](CC(C)C)NC(=O)[C@@H](N)Cc1ccccc1)C(N)=O [FLKQLKKLL]
MIC [8]: 113 µM (≈ 128 µg/mL) | MIC [9]: 7.08 µM (≈ 7.99 µg/mL) | MIC [2]: 56.6 µM (≈ 63.9 µg/mL) | MIC [7]: > 113 µM

SMILES: CC(C)C[C@H](NC(=O)[C@H](CC(C)C)NC(=O)[C@H](CCCCN)NC(=O)[C@H](CCCCN)NC(=O)[C@H](CC(C)C)NC(=O)[C@H](Cc1ccc(O)cc1)NC(=O)[C@H](CCCCN)NC(=O)[C@H](CC(C)C)NC(=O)[C@@H](N)Cc1ccccc1)C(N)=O [FLKYLKKLL]
MIC [2]: 13.7 µM and 27.5 µM | MIC [7]: 13.7 µM and 27.5 µM

SMILES: CC[C@H](C)[C@H](NC(=O)[C@@H]1CCCN1C(=O)[C@H](CC(C)C)NC(=O)[C@@H](N)Cc1ccccc1)C(=O)N[C@@H](CC(C)C)C(=O)NCC(=O)N[C@@H](CCCCN)C(=O)N[C@@H](CC(C)C)C(=O)N[C@@H](CC(C)C)C(=O)N[C@@H](CO)C(=O)NCC(=O)N[C@@H](CC(C)C)C(=O)N[C@@H](CC(C)C)C(N)=O [FLPILGKLLSGLL]
MIC [10]: ≥ 80 µM | MIC [8]: 10 µM (≈ 13.8 µg/mL) | MIC [2]: > 160 µM

SMILES: CC[C@H](C)[C@H](NC(=O)CN)C(=O)NCC(=O)N[C@@H](CCCCN)C(=O)N[C@@H](Cc1ccccc1)C(=O)N[C@H](C(=O)N[C@@H](Cc1cnc[nH]1)C(=O)N[C@@H](C)C(=O)N[C@@H](C)C(=O)N[C@@H](CCCCN)C(=O)N[C@@H](CCCCN)C(=O)N[C@@H](Cc1ccccc1)C(=O)NCC(=O)N[C@@H](CCCCN)C(=O)N[C@@H](CC(C)C)C(=O)N[C@@H](Cc1ccccc1)C(=O)N[C@H](C(=O)NCC(=O)N[C@@H](CCC(=O)O)C(=O)N[C@H](C(=O)N[C@@H](CCSC)C(=O)N[C@@H](CC(N)=O)C(=O)N[C@@H](CO)C(N)=O)[C@@H](C)CC)[C@@H](C)CC)[C@@H](C)CC [GIGKFIHAAKKFGKLFIGEIMNS]
MIC [11]: 2.4 µM (≈ 6.01 µg/mL) | MIC [12]: 23.1 µM (≈ 57.8 µg/mL) | MIC [13]: 9.6 µM (≈ 24.1 µg/mL)

SMILES: CC[C@H](C)[C@H](N)C(=O)N[C@@H](CC(N)=O)C(=O)N[C@@H](Cc1c[nH]c2ccccc12)C(=O)N[C@@H](CCCCN)C(=O)N[C@@H](CCCCN)C(=O)NCC(=O)N[C@@H](CCCCN)C(=O)N[C@@H](CCC(=O)O)C(=O)N[C@H](C(=O)N[C@@H](CC(C)C)C(=O)N[C@@H](CCCCN)C(=O)N[C@@H](C)C(=O)N[C@@H](CC(C)C)C(N)=O)C(C)C [INWKKGKEVLKAL]
MIC [16]: ≥ 100 µM | MIC [11]: > 100 µM

SMILES: CC[C@H](C)[C@H](NC(=O)[C@@H](NC(=O)[C@H](CO)NC(=O)[C@@H]1CCCN1C(=O)[C@@H](NC(=O)[C@@H](NC(=O)[C@H](CO)NC(=O)[C@H](CO)NC(=O)[C@H](CC(C)C)NC(=O)[C@H](C)NC(=O)[C@H](CO)NC(=O)[C@H](CC(C)C)NC(=O)[C@H](C)NC(=O)[C@H](C)NC(=O)CNC(=O)[C@H](CC(C)C)NC(=O)[C@@H](N)CC(C)C)C(C)C)[C@@H](C)CC)C(C)C)C(=O)N[C@@H](CO)C(=O)N[C@@H](Cc1c[nH]c2ccccc12)C(=O)N[C@@H](Cc1ccccc1)C(=O)N[C@@H](CCC(N)=O)C(=O)N[C@@H](CCCCN)C(N)=O [LLGAALSALSSVIPSVISWFQK]
MIC [2]: > 64 µM | MIC [5]: 4 µM (≈ 9.15 µg/mL) | MIC [13]: 8 µM (≈ 18.3 µg/mL) | MIC [6]: 16 µM (≈ 36.6 µg/mL) | MIC [7]: 32 µM (≈ 73.2 µg/mL)

SMILES: NCCCC[C@H](NC(=O)[C@H](CCCCN)NC(=O)[C@H](Cc1c[nH]c2ccccc12)NC(=O)[C@H](CCCCN)NC(=O)[C@H](Cc1ccccc1)NC(=O)[C@H](CCCN=C(N)N)NC(=O)[C@H](Cc1c[nH]c2ccccc12)NC(=O)[C@@H](N)CCCN=C(N)N)C(=O)O [RWRFKWKK]
MIC [18]: ≥ 81 µM | MIC [8]: > 81 µM | MIC [1]: > 81 µM | MIC [2]: > 81 µM

SMILES: CC[C@H](C)[C@H](NC(=O)[C@H](CO)NC(=O)[C@@H](NC(=O)[C@H](CCCCN)NC(=O)[C@H](Cc1ccccc1)NC(=O)[C@@H]1CCCN1C(=O)[C@@H](N)[C@@H](C)O)[C@@H](C)CC)C(=O)N[C@@H](Cc1cnc[nH]1)C(=O)N[C@@H](CC(C)C)C(=O)NCC(=O)NCC(=O)N[C@@H](Cc1ccc(O)cc1)C(N)=O [TPFKISIHLGGY]
MIC [19]: ≥ 150 µM

The remaining lines, values ahead:

MIC [1]: 8580 µM (≈ 4520 µg/mL) | MIC [2]: 34300 µM (≈ 18100 µg/mL) | MIC [3]: 17200 µM (≈ 9040 µg/mL)
SMILES: N[C@@H](CC(=O)O)C(=O)N[C@@H](Cc1ccc(O)cc1)C(=O)N[C@@H](CC(=O)O)C(=O)N[C@@H](CC(=O)O)C(=O)O [DYDD]

MIC [8]: > 64 µM | MIC [2]: 64 µM (≈ 137 µg/mL) | MIC [14]: > 64 µM | MIC [15]: ≥ 64 µM | MIC [3]: 64 µM (≈ 137 µg/mL)
SMILES: CC[C@H](C)[C@H](N)C(=O)N[C@@H](CC(C)C)C(=O)N[C@@H](CCCCN)C(=O)N1CCC[C@H]1C(=O)N[C@@H](CCCCN)C(=O)N[C@@H](CC(C)C)C(=O)N[C@@H](Cc1c[nH]c2ccccc12)C(=O)N[C@@H](CCCCN)C(=O)N[C@@H](CC(C)C)C(=O)N[C@H](C(=O)N[C@H](C(=O)N[C@H](C(=O)N[C@@H](C)C(=O)N[C@@H](CCCN=C(N)N)C(=O)N[C@@H](CCCCN)C(=O)N[C@H](C(=O)N[C@H](C(=O)N[C@@H](CCCCN)C(=O)O)[C@@H](C)CC)[C@@H](C)CC)C(C)C)C(C)C)[C@@H](C)O [ILKPKLWKLTVVARKIIK]

MIC [16]: 25 µM (≈ 41 µg/mL) | MIC [11]: > 100 µM
SMILES: CC[C@H](C)[C@H](NC(C)=O)C(=O)N[C@@H](CC(N)=O)C(=O)N[C@@H](Cc1c[nH]c2ccccc12)C(=O)N[C@@H](CC(C)C)C(=O)N[C@@H](CCCCN)C(=O)N[C@@H](CC(C)C)C(=O)NCC(=O)N[C@@H](CCCCN)C(=O)N[C@@H](CCCCN)C(=O)N[C@@H](CC(C)C)C(=O)N[C@@H](CC(C)C)C(=O)N[C@@H](CO)C(=O)N[C@@H](C)C(=O)N[C@@H](CC(C)C)C(N)=O [INWLKLGKKLLSAL]

MIC [16]: ≥ 40 µM | MIC [11]: 35 µM (≈ 58.7 µg/mL)
SMILES: CC[C@H](C)[C@H](N)C(=O)N[C@@H](CC(N)=O)C(=O)N[C@@H](Cc1c[nH]c2ccccc12)C(=O)N[C@@H](CO)C(=O)N[C@@H](CO)C(=O)N[C@H](C(=O)N[C@@H](Cc1ccccc1)C(=O)N[C@@H](CCC(=O)O)C(=O)N[C@@H](CCCCN)C(=O)N[C@H](C(=O)N[C@@H](CCCCN)C(=O)N[C@@H](CC(N)=O)C(=O)N[C@@H](CC(C)C)C(=O)N[C@H](C(N)=O)C(C)C)C(C)C)[C@@H](C)CC [INWSSIFEKVKNLV]

MIC [8]: 32 µM (≈ 55.2 µg/mL) | MIC [2]: 64 µM (≈ 110 µg/mL) | MIC [14]: 64 µM (≈ 110 µg/mL) | MIC [15]: 8 µM (≈ 13.8 µg/mL) | MIC [3]: 64 µM (≈ 110 µg/mL)
SMILES: CC[C@H](C)[C@H](NC(=O)[C@H](CCCN=C(N)N)NC(=O)[C@H](CC(C)C)NC(=O)[C@@H](NC(=O)[C@H](Cc1ccccc1)NC(=O)[C@H](CCCN=C(N)N)NC(=O)[C@H](C)NC(=O)[C@@H](N)CC(C)C)C(C)C)C(=O)N[C@@H](CC(C)C)C(=O)N[C@@H](CCCCN)C(=O)N[C@@H](Cc1ccc(O)cc1)C(=O)NCC(=O)N[C@@H](Cc1ccccc1)C(=O)N[C@@H](CCCCN)C(=O)O [LARFVLRILKYGFK]

MIC [17]: ≥ 32.8 µM | MIC [2]: 87.4 µM (≈ 200 µg/mL)
SMILES: CC[C@H](C)[C@H](NC(=O)[C@@H](NC(=O)[C@@H](NC(=O)[C@@H]1CCCN1C(=O)[C@H](Cc1c[nH]c2ccccc12)NC(=O)[C@H](Cc1ccccc1)NC(=O)[C@H](CCCN=C(N)N)NC(=O)[C@H](CCCCN)NC(=O)[C@@H](NC(=O)[C@@H](N)CCCN=C(N)N)[C@@H](C)CC)C(C)C)C(C)C)C(=O)N[C@@H](CCCN=C(N)N)C(=O)N[C@H](C(=O)N[C@H](C(=O)N[C@H](C(=O)N[C@@H](C)C(=O)NCC(=O)N[C@@H](Cc1ccc(O)cc1)C(=O)N[C@@H](CC(N)=O)C(=O)N[C@@H](CC(C)C)C(=O)O)C(C)C)C(C)C)[C@@H](C)O [RIKRFWPVVIRTVVAGYNL]
